Assay: Exonuclease Assay: To evaluate the effect of compounds on TREX1 activity, test compounds were serially diluted (11-point, 3-fold) from 10 mM stock solutions and delivered to 384-well low-volume assay plates in 80 nL DMSO using an acoustic dispenser. Next, 4 μL of human TREX1 (0.5 nM), or murine TREX1 (1 nM), diluted in assay buffer (20 mM Tris pH 7.5, 5 mM MgCl2, 100 μg/mL BSA, 0.002% Triton X-100, 2 mM DTT), was added to the assay plate. After incubating for 30 minutes, 4 μL of labeled DNA oligonucleotide (500 nM) in assay buffer was added to initiate TREX1 exonuclease activity. The reaction was allowed to proceed for 45 minutes at room temperature prior to the addition of 4 μL of 150 mM EDTA to halt TREX1 activity. Assay plates were equilibrated for an additional 30 minutes and read on an EnVision Plate Reader (Perkin Elmer) to measure fluorescence emission at 535 nm following excitation at 485 nm. Fluorescence was plotted as a function of log molar compound concentration and fit to four-parameter dose-response equation to determine compound IC50.

Compound: CC(C)C[C@H](C(=O)NCc1ccc(Cl)c(Cl)c1)N1CCC(C=[S+](C)([O-])c2ccccc2)N2C[C@H](N)C[C@H]2C1=O (some centres not stated)
- IC50: < 1 µM

Compound: CC(C)C[C@H](NC(=O)Cc1ccc(Cl)c(Cl)c1)N1CCC(CCc2ccccc2)N2C[C@H](N)C[C@H]2C1=O (some centres not stated)
- IC50: in the range around 5.5 µM

— ChEMBL document CHEMBL5729070, “Substituted pyrrolo[1,2-a]pyrazines and pyrrolo[1,2-a][1,4]diazepines as TREX1 inhibitors” (2022)
